For one test, the system named is HEK-Blue IL-12 cells. In words: Signaling ability in IL-12 recognizing cells (STAT4 inducible SEAP reporter). The format is cell-based, human. Particulars: serial dilution from 4 nM, 24 hours, FIG. 18. As to the method:
The HEK-Blue IL-12 cell line transformed with the IL-12 receptor gene and the STAT4 inducible SEAP reporter gene into HEK293 cells, which are human embryonic kidney fibroblasts, was obtained from Invivogen (San Diego, USA). The HEK-Blue IL-12 cells were maintained in DMEM (GIBCO) containing 10% FBS (GIBCO), 100 μg/ml Normocin and 1×HEK-Blue selection.
Specifically, the HEK-Blue IL-12 cell line, which is an IL-12 recognizing cell, was diluted to 2.8×10^5 cells/ml and dispensed at 180 μl/well. Recombinant human IL-12, T1.01m, T1.02m, T1.03m and T1.12m were suspended at 4 nM and diluted by serial dilution. HEK-Blue IL-12 cells were treated with the diluted recombinant human IL-12, T1.01m, T1.02m, T1.03m and T1.12m. After 24 hours of treatment, the cell supernatant was collected and mixed with QUANTI-Blue Solution (Invivogen) in a 96-well plate. The reporter expression level was measured at 620 nm using a spectrophotometer (Thermo Fisher).

In test [1] the test system is IL-12 receptor of human T cells. In words: p-STAT4 signaling ability in human T cells (AlphaLISA). The following applies: anti-CD3 activated human T cells, 2 hours, FIG. 19; read-out: half maximal effective concentration (EC50), p-STAT4. The test is classed as cell-based. As to the method: In order to identify whether when IL-12 binds to the IL-12 receptor of human T cells, IL-12 initiate signaling by inducing phosphorylation of STAT4, a signaling mediator, the human T cells activated with anti-CD3 (OKT3, Invitrogen) were analyzed using the AlphaLISA SureFire Ultra p-STAT4 (Tyr693) Assay Kit (PerkinElmer, Massachusetts, USA).
Specifically, human proteins IL-12, T1.01, T1.02, T1.03 and T1.12 were suspended at 100 ng/ml and diluted by serial dilution. The human T cells activated with anti-CD3 (OKT3, Invitrogen) were treated with the diluted recombinant human IL-12, T1.01, T1.02, T1.03 and T1.12. After 2 hours of treatment, the cells were lysed and treated with a reagent (PerkinElmer) that detects p-STAT4 (phosphorylated STAT4). pSTAT4 was detected at an excitation wavelength of 680 nm and an emission wavelength of 615 nm with a spectrophotometer.
A general note: Bead proximity is the source of the signal in Alpha formats.

A further test deals with human T cells. In words: IFN-γ secretion in human T cells (ELISA). The format is cell-based. Particulars: anti-CD3 activated human T cells, 48 hours, FIG. 21. As to the method: For cytokine measurement, enzyme-linked immunosorbent assay (ELISA, R&D systems) was performed on the supernatant stored at −20° C. in the following steps:
(i) The capture antibody was diluted according to the Certificate of Analysis (CoA) and coated on a 96-well plate for 24 hours.
(ii) The wells were washed with a wash solution, and then blocking was performed for 1 hour with 1% BSA (Bovine serum albumin, Sigma) solution.
(iii) The wells were washed with a wash solution, and then the samples were treated for 2 hours.
(iv) The wells were washed with a wash solution, and then the detection antibody was diluted according to the Certificate of Analysis and aliquoted into the wells, and then the wells were treated therewith for 2 hours.
(v) The wells were washed with a wash solution, and then treated with streptavidin-HRP for 20 minutes.
(vi) The wells were washed with a wash solution, and then treated with a substrate solution for 20 minutes.
(vii) The wells were treated with a stop solution, and the absorbance was measured at 450 nm.
Specifically, the human T cells activated with anti-CD3 (OKT3, Invitrogen) were diluted to 5×10^5 cells/ml and dispensed in a 96-well plate at 200 μl/well. Recombinant human IL-12, T1.12, T1.01, T1.02 and T1.03 were diluted to 10 nM and dispensed at 20 μl/well. […]

As for “recombinant human IL-12: Recombinant human IL-12 used as comparator in signaling and IFN-γ secretion tests [reference compound]”, the “IL-12 recognition / STAT4 reporter gene expression (620 nm absorbance)” value with HEK-Blue IL-12 cells was “IL-12 was recognized, and STAT4 expressed a reporter gene by inducing phosphorylation”. Besides, the EC50 in test [1] is 8.95 pM. Moreover, the “average IFN-γ in supernatant” value in the test with human T cells is recorded as 1,640 pg/ml.
